Source: patent publication EP4772506A1, “COMPOUND FOR REGULATING ACTIVITY OF MICRORNA-124” (Jiangsu Chia Tai Fenghai Pharmaceutical Co., Ltd., priority 2023, dated 2025)

What was measured:
[1] = Pharmacokinetic study in rats (plasma, LC-MS/MS); details: for F: absolute bioavailability, SD male rats, p.o. 25 mg/kg vs i.v. 1 mg/kg; for AUC(0-t) / MRT inf / half-life / Cmax / Tmax: rat, in vivo
Experimental: • (1) SD male rats were used as test animals.
The administration solvent was a physiological saline solution containing 10% DMSO + 10% polyoxyl castor oil (Cremophor EL). Fasting was maintained for approximately 12 hours prior to administration, and free feeding was allowed 4 hours post-administration, with no water restriction. […] After gently inverting the tube to fully mix the anticoagulant EDTA-K2 with the blood, the tube was immediately placed on wet ice. The plasma was separated by centrifugation immediately after blood collection under the following centrifugation conditions: 4°C, 3500 rpm, and 5 min. The upper plasma layer was transferred and stored at -80°C until sample analysis. […] The pharmacokinetic parameters were calculated from the sample analysis results using WinNonlin software.

[2] = Pharmacokinetic study in beagle dogs (plasma, LC-MS/MS); type: in vivo
Experimental: The pharmacokinetic characteristics of test compound 45 was investigated in beagle dogs.
The gavage group was fasted for no less than 12 hours before administration, with free access to water. After 4 h of administration, the dogs were fed uniformly. […] The upper plasma layer was transferred and stored at -20°C until sample analysis. The concentration of the test compound in dog plasma was determined using the LC-MS/MS method. Pharmacokinetic parameters were fitted using WinNonlin software, and absolute bioavailability was calculated. Table 6. Pharmacokinetic parameters of compounds in beagle dogs

SMILES	F [1] [%]	AUC(0-t) ([1]; iv, 1 mg/kg) [ng·h/mL]	MRT inf ([1]; iv, 1 mg/kg) [h]	half-life ([1]; iv, 1 mg/kg) [h]	AUC(0-t) ([1]; po, 25 mg/kg) [ng·h/mL]	Cmax ([1]; po, 25 mg/kg) [ng/mL]	MRT inf ([1]; po, 25 mg/kg) [h]	Tmax ([1]; po, 25 mg/kg) [h]	half-life ([1]; po, 25 mg/kg) [h]	F ([2]; absolute bioavailability, p.o. 6 mg/kg vs i.v. 1 mg/kg) [%]	AUC(0-t) ([2]; dog, in vivo, iv, i.v. 1mg/kg) [ng·h/mL]	MRT inf ([2]; dog, in vivo, iv, i.v. 1mg/kg) [h]	half-life ([2]; dog, in vivo, iv, i.v. 1mg/kg) [h]	AUC(0-t) ([2]; dog, in vivo, po, p.o. 6 mg/kg) [ng·h/mL]	Cmax ([2]; dog, in vivo, po, p.o. 6 mg/kg) [ng/mL]	MRT inf ([2]; dog, in vivo, po, p.o. 6 mg/kg) [h]	Tmax ([2]; dog, in vivo, po, p.o. 6 mg/kg) [h]	half-life ([2]; dog, in vivo, po, p.o. 6 mg/kg) [h]
CN(C)CCN(C)c1cc(Cl)cc2nc(Nc3ccc(OC(F)(F)F)cc3)ncc12 [Compound 44]	34.3	650	8.9	15.1	5570	389	8.2	6	8.7									
FC(F)(F)Oc1ccc(Nc2ncc3c(N4CCOCC4)cc(Cl)cc3n2)cc1 [Compound 45]	27.6	1180	1.5	2.2	8400	2550	3.2	2	5.4	10.7	1560	3.56	8.88	990	204	5.9	2	7.18
